{"source": "PubChem BioAssay (NCI)", "note": "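Results reflect a 48-hour exposure of cells in 96-well plates to compound at five concentrations. Definition used: TGI = concentration required for complete inhibition of growth.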 Where a SMILES comes first, the peptide text is derived from it. The star is where a group is joined. Cbz = O=C(OCc1ccccc1)*", "data": [{"tested_on": "COLO 205 colon", "test": "NCI anticancer screen, dose series, 48 h", "units": {"TGI": "µM"}, "values": [{"smiles": "CCOC(=O)CCC(NC(=O)OCc1ccccc1)C(=O)NC(CCC(=O)OCC)C(=O)OCC", "note": "(centres undefined) (Cbz-Glu(OEt)-Glu(OEt)-OEt; configuration not given here)", "TGI": "> 100"}, {"smiles": "CCOC(=O)C(NC(=O)c1ccccc1)(N1CCN(c2cc3c(cc2F)c(=O)c(C(=O)O)cn3C2CC2)CC1)C(F)(F)F", "note": "(centres undefined)", "TGI": 30.8}, {"smiles": "COc1ccc(C2(CC(C)C)CCN(S(=O)(=O)c3ccc(C)cc3)C2)cc1OC", "note": "(centres undefined)", "TGI": "> 100"}, {"smiles": "O=c1cc(NNc2cccc(Cl)c2)[nH]c(=O)[nH]1", "TGI": "> 100"}, {"smiles": "CCOC(=O)c1sc2nc(SC)nc(Nc3ccc4c(c3)OCCO4)c2c1N", "TGI": "> 100"}, {"smiles": "CC1(C)OP(=O)(O)C=C1Sc1ccc([N+](=O)[O-])cc1[N+](=O)[O-]", "TGI": "> 100"}]}, {"tested_on": "DU-145 prostate", "test": "NCI anticancer screen, dose series, 48 h", "units": {"TGI": "µM"}, "values": [{"smiles": "c1ccc2c(c1)Nc1cccc3c1c-2nc1ccccc13", "TGI": 2.6}, {"smiles": "COC(=O)C1=C(OC)[C@H]2C#C/C=C\\C#C[C@@H]3Nc4c(cc(O)c5c4C(=O)c4ccccc4C5=O)[C@]24O[C@@]34[C@H]1C", "TGI": "< 0.01"}, {"smiles": "CCOC(=O)CCC(NC(=O)OCc1ccccc1)C(=O)NC(CCC(=O)OCC)C(=O)OCC", "note": "(centres undefined) (Cbz-Glu(OEt)-Glu(OEt)-OEt; configuration not given here)", "TGI": "> 100"}, {"smiles": "CCOC(=O)C(NC(=O)c1ccccc1)(N1CCN(c2cc3c(cc2F)c(=O)c(C(=O)O)cn3C2CC2)CC1)C(F)(F)F", "note": "(centres undefined)", "TGI": "> 100"}, {"smiles": "COc1ccc(C2(CC(C)C)CCN(S(=O)(=O)c3ccc(C)cc3)C2)cc1OC", "note": "(centres undefined)", "TGI": "> 100"}, {"smiles": "O=c1cc(NNc2cccc(Cl)c2)[nH]c(=O)[nH]1", "TGI": "> 100"}, {"smiles": "CCOC(=O)c1sc2nc(SC)nc(Nc3ccc4c(c3)OCCO4)c2c1N", "TGI": 33.5}, {"smiles": "CC1(C)OP(=O)(O)C=C1Sc1ccc([N+](=O)[O-])cc1[N+](=O)[O-]", "TGI": "> 100"}]}, {"tested_on": "EKVX NSCLC", "test": "NCI anticancer screen, dose series, 48 h", "units": {"TGI": "µM"}, "values": [{"smiles": "COC(=O)C1=C(OC)[C@H]2C#C/C=C\\C#C[C@@H]3Nc4c(cc(O)c5c4C(=O)c4ccccc4C5=O)[C@]24O[C@@]34[C@H]1C", "TGI": 0.0335}, {"smiles": "CCOC(=O)CCC(NC(=O)OCc1ccccc1)C(=O)NC(CCC(=O)OCC)C(=O)OCC", "note": "(centres undefined) (Cbz-Glu(OEt)-Glu(OEt)-OEt; configuration not given here)", "TGI": "> 100"}, {"smiles": "CCOC(=O)C(NC(=O)c1ccccc1)(N1CCN(c2cc3c(cc2F)c(=O)c(C(=O)O)cn3C2CC2)CC1)C(F)(F)F", "note": "(centres undefined)", "TGI": 67.1}, {"smiles": "COc1ccc(C2(CC(C)C)CCN(S(=O)(=O)c3ccc(C)cc3)C2)cc1OC", "note": "(centres undefined)", "TGI": "> 100"}, {"smiles": "CCOC(=O)c1sc2nc(SC)nc(Nc3ccc4c(c3)OCCO4)c2c1N", "TGI": 26.6}, {"smiles": "CC1(C)OP(=O)(O)C=C1Sc1ccc([N+](=O)[O-])cc1[N+](=O)[O-]", "TGI": "> 100"}]}, {"tested_on": "HCC-2998 colon", "test": "NCI anticancer screen, dose series, 48 h", "units": {"TGI": "µM"}, "values": [{"smiles": "COC(=O)C1=C(OC)[C@H]2C#C/C=C\\C#C[C@@H]3Nc4c(cc(O)c5c4C(=O)c4ccccc4C5=O)[C@]24O[C@@]34[C@H]1C", "TGI": "< 0.0135"}, {"smiles": "CCOC(=O)CCC(NC(=O)OCc1ccccc1)C(=O)NC(CCC(=O)OCC)C(=O)OCC", "note": "(centres undefined) (Cbz-Glu(OEt)-Glu(OEt)-OEt; configuration not given here)", "TGI": "> 100"}, {"smiles": "CCOC(=O)C(NC(=O)c1ccccc1)(N1CCN(c2cc3c(cc2F)c(=O)c(C(=O)O)cn3C2CC2)CC1)C(F)(F)F", "note": "(centres undefined)", "TGI": 38.6}, {"smiles": "COc1ccc(C2(CC(C)C)CCN(S(=O)(=O)c3ccc(C)cc3)C2)cc1OC", "note": "(centres undefined)", "TGI": "> 100"}, {"smiles": "O=c1cc(NNc2cccc(Cl)c2)[nH]c(=O)[nH]1", "TGI": "> 100"}, {"smiles": "CCOC(=O)c1sc2nc(SC)nc(Nc3ccc4c(c3)OCCO4)c2c1N", "TGI": "> 100"}, {"smiles": "CC1(C)OP(=O)(O)C=C1Sc1ccc([N+](=O)[O-])cc1[N+](=O)[O-]", "TGI": "> 100"}]}, {"tested_on": "HCT-116 colon", "test": "NCI anticancer screen, dose series, 48 h", "units": {"TGI": "µM"}, "values": [{"smiles": "c1ccc2c(c1)Nc1cccc3c1c-2nc1ccccc13", "TGI": 1.79}, {"smiles": "COC(=O)C1=C(OC)[C@H]2C#C/C=C\\C#C[C@@H]3Nc4c(cc(O)c5c4C(=O)c4ccccc4C5=O)[C@]24O[C@@]34[C@H]1C", "TGI": 7.6}, {"smiles": "CCOC(=O)CCC(NC(=O)OCc1ccccc1)C(=O)NC(CCC(=O)OCC)C(=O)OCC", "note": "(centres undefined) (Cbz-Glu(OEt)-Glu(OEt)-OEt; configuration not given here)", "TGI": "> 100"}, {"smiles": "CCOC(=O)C(NC(=O)c1ccccc1)(N1CCN(c2cc3c(cc2F)c(=O)c(C(=O)O)cn3C2CC2)CC1)C(F)(F)F", "note": "(centres undefined)", "TGI": 31.6}, {"smiles": "COc1ccc(C2(CC(C)C)CCN(S(=O)(=O)c3ccc(C)cc3)C2)cc1OC", "note": "(centres undefined)", "TGI": 92.6}, {"smiles": "O=c1cc(NNc2cccc(Cl)c2)[nH]c(=O)[nH]1", "TGI": 31.9}, {"smiles": "CCOC(=O)c1sc2nc(SC)nc(Nc3ccc4c(c3)OCCO4)c2c1N", "TGI": 42.1}, {"smiles": "CC1(C)OP(=O)(O)C=C1Sc1ccc([N+](=O)[O-])cc1[N+](=O)[O-]", "TGI": "> 100"}]}, {"tested_on": "HCT-15 colon", "test": "NCI anticancer screen, dose series, 48 h", "units": {"TGI": "µM"}, "values": [{"smiles": "COC(=O)C1=C(OC)[C@H]2C#C/C=C\\C#C[C@@H]3Nc4c(cc(O)c5c4C(=O)c4ccccc4C5=O)[C@]24O[C@@]34[C@H]1C", "TGI": 0.0147}, {"smiles": "CCOC(=O)CCC(NC(=O)OCc1ccccc1)C(=O)NC(CCC(=O)OCC)C(=O)OCC", "note": "(centres undefined) (Cbz-Glu(OEt)-Glu(OEt)-OEt; configuration not given here)", "TGI": "> 100"}, {"smiles": "COc1ccc(C2(CC(C)C)CCN(S(=O)(=O)c3ccc(C)cc3)C2)cc1OC", "note": "(centres undefined)", "TGI": "> 100"}, {"smiles": "O=c1cc(NNc2cccc(Cl)c2)[nH]c(=O)[nH]1", "TGI": 31.4}, {"smiles": "CC1(C)OP(=O)(O)C=C1Sc1ccc([N+](=O)[O-])cc1[N+](=O)[O-]", "TGI": "> 100"}]}, {"tested_on": "HL-60(TB) leukemia", "test": "NCI anticancer screen, dose series, 48 h", "units": {"TGI": "µM"}, "values": [{"smiles": "c1ccc2c(c1)Nc1cccc3c1c-2nc1ccccc13", "TGI": 3.3}, {"smiles": "COC(=O)C1=C(OC)[C@H]2C#C/C=C\\C#C[C@@H]3Nc4c(cc(O)c5c4C(=O)c4ccccc4C5=O)[C@]24O[C@@]34[C@H]1C", "TGI": "< 0.01"}, {"smiles": "CCOC(=O)C(NC(=O)c1ccccc1)(N1CCN(c2cc3c(cc2F)c(=O)c(C(=O)O)cn3C2CC2)CC1)C(F)(F)F", "note": "(centres undefined)", "TGI": 36.5}, {"smiles": "O=c1cc(NNc2cccc(Cl)c2)[nH]c(=O)[nH]1", "TGI": 43.9}, {"smiles": "CCOC(=O)c1sc2nc(SC)nc(Nc3ccc4c(c3)OCCO4)c2c1N", "TGI": "> 100"}, {"smiles": "CC1(C)OP(=O)(O)C=C1Sc1ccc([N+](=O)[O-])cc1[N+](=O)[O-]", "TGI": "> 100"}]}, {"tested_on": "HOP-62 NSCLC", "test": "NCI anticancer screen, dose series, 48 h", "units": {"TGI": "µM"}, "values": [{"smiles": "COC(=O)C1=C(OC)[C@H]2C#C/C=C\\C#C[C@@H]3Nc4c(cc(O)c5c4C(=O)c4ccccc4C5=O)[C@]24O[C@@]34[C@H]1C", "TGI": "< 0.01"}, {"smiles": "CCOC(=O)CCC(NC(=O)OCc1ccccc1)C(=O)NC(CCC(=O)OCC)C(=O)OCC", "note": "(centres undefined) (Cbz-Glu(OEt)-Glu(OEt)-OEt; configuration not given here)", "TGI": "> 100"}, {"smiles": "CCOC(=O)C(NC(=O)c1ccccc1)(N1CCN(c2cc3c(cc2F)c(=O)c(C(=O)O)cn3C2CC2)CC1)C(F)(F)F", "note": "(centres undefined)", "TGI": "> 100"}]}]}
